Experimental data as given in US10617656B2, “Methods of increasing the cytotoxicity of chemotherapeutic agents with multisubstrate inhibitors of histone, protein-Lys, polyamine acetylation, and polyamine metabolism” (Vanderbilt University, priority 2010, dated 2020).

How the values were obtained:
[1] = test system: H358 lung cancer cells; type: cell-based
Description: (§1) Control cells were left untreated. […] Control cells were left untreated.
Cells were given fresh inhibitor on the first, second, and third days of treatment and viability was measured on the 4th day (i.e. 3 days post start of treatment). […]
(A) Structure of Spd-3a. (B) Western analysis of histone H3K9-acetylation and total histone H3, measured in control, untreated H358 lung cancer cells “C” or in H358 cells incubated 12 hours in the presence of 50 μM Spd-2a or Spd-3a. Each lane represents 60 μg cellular protein. (C) [3H]-thymidine incorporation (counts per minute) into DNA of H358 cells during a 6 hour pulse beginning at 42 hours post-start of treatment. Treatments were as follows (bars 1-6 left to right): (1) control: no treatment; (2) CPT alone: 5 nM 18 hours; (3) 3a alone: 50 μM; (4-6) 3a+CPT: CPT (5 nm, 18 hours)+3a at indicated dose. After 18 hours, CPT was removed and medium was replaced with fresh medium containing Spd-3a at the indicated dose. Each bar represents the average of triplicates. (D) 3-day 96-well viability assay of H358 cells grown in the presence of increasing amounts of Spd-2a or Spd-3a, with or without CPT (5 nM 18 hours). […] Each data point represents the average of three wells.
(§2) Date of exp: Jul. […] Date of exp: Sep.
(§3) Cells were plated in 96-well plates at 2000 cells per well and treated with the indicated doses of spd-3a. Cell viability was measured by the MTS assay 3 days later.
DLD-1 cells or H358 cells were plated in 96-well plates at 2000 cells per well and treated with the indicated doses of (A) spm-3 or (B) spm-2. (C) Cell viability was measured by the MTS assay 3 days later. Similar experiment using GT41 fibroblasts with spm2 or spm 3. Each assay point represents an average of duplicates. […]

[2] = test system: endogenous HATs associated with solubilized chromatin; conditions: Bandyopadhyay et al, 2009; cited from earlier work
[3] = test system: MCF7 breast cancer cells; conditions: for effect as single agent on viability: 72 hr assay, DFMO 100 μM, 5FU 2 μM, doxorubicin 100 nM
Description: Viability was measured 3 days after the start of treatment and is expressed as a percentage of control (untreated) cell viability.
Each point is average of triplicates. […]
The present inventors carried out 96-well viability assays as we have previously described (Saadatmandi et al, Cancer Gene Therapy (2002) 9:830-9), in which MCF7 breast cancer cells were plated at 3000 cells per well. After overnight attachment, triplicate wells were treated with increasing doses of inhibitor 1a. Control wells were left untreated. After 3 days, cell viability was measured by the MTS assay, which measures the bioconversion of an uncolored substrate to a colored formazan derivative, and is proportional to cell number.

[4] = test system: MDA MB-435 breast cancer cells; assay: 72 hr viability assay, MDA MB-435; type: cell-based; conditions: 72 hr assay; DFMO 100 μM, 5FU 2 μM, doxorubicin 100 nM
[5] = test system: γ-H2A.X in H358 cells; assay: γ-H2A.X Western / double strand break repair assay; type: cell-based; conditions: 18 hours post-start; low doses as in FIG. 3
Description: Also shown are controls for no treatment (“c” minus 1a) or treatment with 1a only (“c” plus 1a). Each lane represents 60 μg protein. […] Each lane represents 60 μg protein.
To measure DSB repair, cells were incubated for 1 hour with 10 μM camptothecin to induce DSBs, followed by incubation in the presence or absence of 50 μM 1a. At fixed times, histones were prepared by extraction in 0.2M H2SO4 as described previously and 50 μg extract was analyzed by 12% SDS-PAGE followed Western analysis as described previously, using rabbit polyclonal anti-γ-H2A.X [phosphor ser 139] (Novus Biologicals, Littleton, Colo.) or anti-H3 (Upstate Biotechnology, Inc, Lake Placid, N.Y.). Band intensities were quantitated digitally. To study acetylation of γ-H2A.X, we carried out co-immunoprecipitation analysis using 50 μg extract protein in immunoprecipitation buffer (10 mM sodium phosphate pH 7, 0.15 M NaCl, 0.1% SDS, 1% NP40, 1% sodium deoxycholate, aprotinin, 1 mM PMSF, complete protease inhibitors (Roche) using immobilized anti-acetyl-lysine (Millipore, Temecula, Calif.) in the immunoprecipitation step. The immunoprecipitated material was then analyzed as for Western analysis using anti γ-H2A.X.

[6] = test system: DU145 prostate cancer cells; assay: Viability assay, DU145; type: cell-based; conditions: 5 nM camptothecin or 10 μM 2a
Description: as §3

[7] = test system: γ-H2A.X in DU145 prostate cancer cells; assay: γ-H2A.X immunofluorescence in DU145 cells; type: cell-based; conditions: 5 nM camptothecin alone, 8 hours
Excerpt: The immunofluorescence images on the left and right sides of the middle scheme illustrate this visually. […] Cells were fixed and stained with a rabbit antibody to the histone variant, γ-H2A.X, a marker for DNA double stranded breaks, followed by staining with a fluorescein (FITC)-tagged goat anti rabbit secondary antibody. Nuclei were stained with Hoescht 33345.

[8] = test system: GT41F human skin fibroblast cells; assay: [3H]-thymidine incorporation in normal fibroblasts; type: cell-based; conditions: 50 μM 1a alone or 5 nM camptothecin alone
Excerpt: (§4) Cells were either labeled immediately before treatment (starting DNA synthesis rate), or subjected to the indicated treatments and then pulsed on successive days until day 4. DNA synthesis is represented as the percent of starting DNA synthesis rate.
The present inventors used a 96-well viability assays as described in Saadatmandi et al (Cancer Gene Therapy (2002) 9:930-9) to examine the effect of the spermidine-CoA inhibitor disclosed previously on DNA synthesis in normal GT41F human skin fibroblast cells, as well as its combined effect with camptothecin. GT41F cells were plated in 96-well plates at 3000 cells per well. […] Following the 6-hour labeling, cells were harvested and incorporation of [^3H]-thymidine was determined by scintillation counting.

[9] = test system: BT20 TNBC cells; assay: 3-day viability assay, BT20; type: cell-based; conditions: 5 nM
Excerpt: as §2
The effect of spd-2a on the BT20 breast cancer cell line derived form a spontaneous TNBC with wild-type BrCa1 was examined. […] Having previously established that spd-2a is a therapy sensitizer, the present inventors then examined the combined effects of spd-2a and camptothecin (the basis for the chemotherapeutic drug, Irinotecan).

[10] = test system: H358 lung cancer cells; assay: [3H]-thymidine incorporation (DNA synthesis) assay in H358 cells; type: cell-based; conditions: 5 nM alone (18 or 24 hours)
Description: (A) Structures of 1a, and the acetylated side chain of a lysine residue within the polypeptide chain of a protein targeted by the acetylating enzyme (R1 and R2 are the main chain elements on both sides of the lysyl residue). (B) [^3H]-thymidine incorporation into DNA of H358 cells pulsed for 6 hrs at three different time points after the addition of increasing concentrations of 1a, i.e., at 6-12 hrs (12 hr curve), at 18-24 hours (24 hr curve), or at 42-48 hrs (48 hr curve). Incorporation is represented as a percentage relative to control (untreated) cells. (C) Cell cycle analysis of propidium iodide-stained cells harvested at various times after addition of 50 μM 1a. % of cells in G1, S, and G2 represents the average of two independent profiles. (D) Western analysis of histone H3 lysine 9 acetylation, histone H3 lysine 56 acetylation, histone H3 lysine 9 methylation, and total histone H3, before “c” or at the indicated times after addition of 50 μM 1a. Each lane represents 60 μg cellular protein.
as §1
as §4, with “rate. Viability was determined for each treatment condition 24 hours post-start of treatment by the trypan blue exclusion assay, with percentages of viable cells indicated to the right of the graph.” for “rate.”
H358 cells (2,000/well) in 96-well plates were treated with 1, 10 or 50 μM of spd-1a, spd-2a, spd-3a, spm3, or spm2 for 12 hours. Triplicate wells of cells were pulsed 6 hours with 0.5 μCi [^3H]-thymidine (NEN, Boston Mass.) post-start of drug treatment, and harvested onto filter paper using a Brandel Harvester and subjected to scintillation counting. Untreated cells were pulsed from 0-6 hrs to establish the initial rate of incorporation.
Cells were plated in 96-well plates (2000 cells per well to insure conditions for exponential growth for untreated cells over the time course of the experiment) and exposed to the following treatments: 1a (50 μM); camptothecin (Sigma, St Louis, Mo. 5 nM, 18 hours); cisplatin (Platinol, obtained through local pharmacies, 2 μM, 1 hour 15 minutes), 5-fluorouracil (5FU, Adrucil™, obtained through local pharmacies, 2 μM, 1 hour 15 minutes), Taxotere (provided by the late Dr. Pierre Potier, 5 nM, 18 hours). UVC treatment (40 J/m^2) using a Stratalinker™, Stratagene, La Jolla, Calif.) was carried using medium lacking phenol red. At 0-6 hr, 18-24 hr (day 1), 42-48 hr […], 66-72 hr (day 3), and 90-96 hr (day 4) post-start of treatment, triplicate wells were incubated with 0.5 μCi [^3H]-thymidine (NEN, Boston Mass.), harvested onto filter paper, and subjected to scintillation counting. Trypan blue exclusion assays for cell membrane integrity were carried out as known in the art.
The present inventors used 96-well viability assays as described in Saadatmandi et al (Cancer Gene Therapy (2002) 9:[…]) to examine the effect of 1a on DNA synthesis in H358 cells, as well as the combined effects of 1a and chemotherapeutic agents. H358 cells were plated in 96-well plates at 3000 cells per well. […]

In the case of `CC(C)(COP(=O)(O)OP(=O)(O)OC[C@H]1O[C@@H](n2cnc3c(N)ncnc32)[C@H](O)[C@@H]1OP(=O)(O)O)[C@@H](O)C(=O)NCCC(=O)NCCSCC(=O)NCCCCNCCCN` [1b, spermidine [N8]-CoA], the “suppression of 3 day cell viability” value [1] is listed as 60-70% and the “inhibitory activity against endogenous HAT activity, isomers compared” value [2] is listed as “comparable inhibitory activity”.
With `O=c1[nH]cc(F)c(=O)[nH]1` [5FU, 5-Fluorouracil] the “effect as single agent on viability” value [3] was “minimal effects”, the “effect as single agent on viability” value [4] was “minimal effects” and the “γ-H2A.X level, single agent” value [5] was “weakly detectable”.
For `CC[C@@]1(O)C(=O)OCc2c1cc1n(c2=O)Cc2cc3ccccc3nc2-1` [camptothecin], the “effect of the dose on cell viability, single agent” value [6] was “minimal effects on cell viability”, the “DNA damage (γ-H2A.X staining)” value [7] was “minimal damage” and the “2-day cell viability relative to untreated cells” value ([3]; 5 nM camptothecin alone, 18 hour) was “no effect”. The “effect on incorporation of [3H]-thymidine, single agent” value [8] was “virtually no effect”, the “effect of camptothecin by itself” value [9] was “no effect” and the “effect of camptothecin alone on [3H]-thymidine incorporation” value [10] was “no detectable effect”. For the same molecule, the “γ-H2A.X level, single agent” value [5] was “weakly detectable”.
In the case of `N.N.[Cl][Pt][Cl]` [cisplatin, cis-diamminedichloro-platinium], the “γ-H2A.X level, single agent” value [5] was “weakly detectable”.
In the case of `COc1cccc2c1C(=O)c1c(O)c3c(c(O)c1C2=O)C[C@@](O)(C(=O)CO)C[C@@H]3O[C@H]1C[C@H](N)[C@H](O)[C@H](C)O1` [doxorubicin], the “effect as single agent on viability” value [3] was “minimal effects” and the “effect as single agent on viability” value [4] was “minimal effects”.
